Data from ChEMBL document CHEMBL4118084, “Chemical Approaches to Intervening in Ubiquitin Specific Protease 7 (USP7) Function for Oncology and Immune Oncology Therapies” (J Med Chem, 2018).
One block for each compound: values may come before it.

Key:
[1] = Inhibition of mouse CD4+/CD25+ Treg cells-mediated suppression of CD3-stimulated T-effector cell proliferation after 72 hrs by CellTrace violet dye-based assay; format: functional
[2] = target: T1, Ubiquitin carboxyl-terminal hydrolase 7 (Homo sapiens, UniProt Q93009); assay: Inhibition of full-length native C-terminal USP7 (unknown origin) using Ub-Rho110 as substrate after 1 hr by fluorescence assay
[3] = target: T1, Ubiquitin carboxyl-terminal hydrolase 7; assay: Inhibition of USP7 in human SJSA cells assessed as increase in ubiquitinated MDM2 level after 20 hrs in presence of MG132 by MSD assay; format: cell-based
[4] = target: T1, Ubiquitin carboxyl-terminal hydrolase 7; assay: Inhibition of USP7 (unknown origin) using human N-terminal GST-tagged UBA52 as substrate preincubated for 10 mins followed by substrate addition measured after 45 mins by coomassie brilliant blue staining-based SDS-PAGE analysis
[5] = target: T1, Ubiquitin carboxyl-terminal hydrolase 7; assay: Inhibition of USP7 (unknown origin)
[6] = target: T1, Ubiquitin carboxyl-terminal hydrolase 7; assay: Inhibition of human recombinant 6His-tagged USP7 using Ub-Rh110 as substrate preincubated for 30 mins followed by substrate addition measured after 180 mins by fluorometric analysis
[7] = target: T2, Ubiquitin carboxyl-terminal hydrolase 2 (Homo sapiens, UniProt O75604); assay: Inhibition of USP2 (unknown origin)
T2 sequence (O75604 whole entry): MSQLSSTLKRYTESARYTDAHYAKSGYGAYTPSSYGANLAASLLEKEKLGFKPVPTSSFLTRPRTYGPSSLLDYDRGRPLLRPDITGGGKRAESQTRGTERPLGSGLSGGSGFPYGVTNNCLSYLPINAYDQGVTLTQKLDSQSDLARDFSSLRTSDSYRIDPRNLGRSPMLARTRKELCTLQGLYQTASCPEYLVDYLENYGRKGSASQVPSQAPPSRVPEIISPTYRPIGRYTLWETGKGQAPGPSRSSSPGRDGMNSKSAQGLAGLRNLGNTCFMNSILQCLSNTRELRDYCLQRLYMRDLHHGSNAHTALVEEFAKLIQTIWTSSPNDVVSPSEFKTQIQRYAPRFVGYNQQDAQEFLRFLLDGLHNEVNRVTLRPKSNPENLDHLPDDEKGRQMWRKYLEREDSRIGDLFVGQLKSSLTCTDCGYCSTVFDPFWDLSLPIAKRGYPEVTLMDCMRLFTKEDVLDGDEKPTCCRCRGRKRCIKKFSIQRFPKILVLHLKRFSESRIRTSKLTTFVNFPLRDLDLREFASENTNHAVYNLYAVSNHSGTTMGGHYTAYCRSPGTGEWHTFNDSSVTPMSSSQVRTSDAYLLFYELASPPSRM

[8] = target: T1, Ubiquitin carboxyl-terminal hydrolase 7; assay: Inhibition of USP7 (unknown origin) using Ub-Rh110 as substrate by fluorescence based assay
[9] = target: Ubiquitin carboxyl-terminal hydrolase 7 (Homo sapiens, UniProt Q93009, C223A); assay: Inhibition of human full-length wild-type His-tagged catalytic USP7 […] expressed in baculovirus infected Sf9 cells using Ub-AMC as substrate preincubated for 30 mins followed by substrate addition measured after 1 hrs by fluorometric analysis
[10] = target: T1, Ubiquitin carboxyl-terminal hydrolase 7; assay: Inhibition of full-length recombinant USP7 (unknown origin) expressed in Sf9 cells using Ub-EKL as substrate preincubated for 30 mins followed by substrate addition by fluorescence based assay
[11] = target: T1, Ubiquitin carboxyl-terminal hydrolase 7; assay: Inhibition of full-length USP7 (unknown origin) using Ub-AMC as substrate preincubated for 20 mins followed by substrate addition measured after 50 mins
[12] = target: T3, Ubiquitin carboxyl-terminal hydrolase 47 (Homo sapiens, UniProt Q96K76); assay: Inhibition of USP47 (unknown origin) using Ub-AMC as substrate preincubated for 20 mins followed by substrate addition measured after 50 mins
T3 sequence (Q96K76 whole entry): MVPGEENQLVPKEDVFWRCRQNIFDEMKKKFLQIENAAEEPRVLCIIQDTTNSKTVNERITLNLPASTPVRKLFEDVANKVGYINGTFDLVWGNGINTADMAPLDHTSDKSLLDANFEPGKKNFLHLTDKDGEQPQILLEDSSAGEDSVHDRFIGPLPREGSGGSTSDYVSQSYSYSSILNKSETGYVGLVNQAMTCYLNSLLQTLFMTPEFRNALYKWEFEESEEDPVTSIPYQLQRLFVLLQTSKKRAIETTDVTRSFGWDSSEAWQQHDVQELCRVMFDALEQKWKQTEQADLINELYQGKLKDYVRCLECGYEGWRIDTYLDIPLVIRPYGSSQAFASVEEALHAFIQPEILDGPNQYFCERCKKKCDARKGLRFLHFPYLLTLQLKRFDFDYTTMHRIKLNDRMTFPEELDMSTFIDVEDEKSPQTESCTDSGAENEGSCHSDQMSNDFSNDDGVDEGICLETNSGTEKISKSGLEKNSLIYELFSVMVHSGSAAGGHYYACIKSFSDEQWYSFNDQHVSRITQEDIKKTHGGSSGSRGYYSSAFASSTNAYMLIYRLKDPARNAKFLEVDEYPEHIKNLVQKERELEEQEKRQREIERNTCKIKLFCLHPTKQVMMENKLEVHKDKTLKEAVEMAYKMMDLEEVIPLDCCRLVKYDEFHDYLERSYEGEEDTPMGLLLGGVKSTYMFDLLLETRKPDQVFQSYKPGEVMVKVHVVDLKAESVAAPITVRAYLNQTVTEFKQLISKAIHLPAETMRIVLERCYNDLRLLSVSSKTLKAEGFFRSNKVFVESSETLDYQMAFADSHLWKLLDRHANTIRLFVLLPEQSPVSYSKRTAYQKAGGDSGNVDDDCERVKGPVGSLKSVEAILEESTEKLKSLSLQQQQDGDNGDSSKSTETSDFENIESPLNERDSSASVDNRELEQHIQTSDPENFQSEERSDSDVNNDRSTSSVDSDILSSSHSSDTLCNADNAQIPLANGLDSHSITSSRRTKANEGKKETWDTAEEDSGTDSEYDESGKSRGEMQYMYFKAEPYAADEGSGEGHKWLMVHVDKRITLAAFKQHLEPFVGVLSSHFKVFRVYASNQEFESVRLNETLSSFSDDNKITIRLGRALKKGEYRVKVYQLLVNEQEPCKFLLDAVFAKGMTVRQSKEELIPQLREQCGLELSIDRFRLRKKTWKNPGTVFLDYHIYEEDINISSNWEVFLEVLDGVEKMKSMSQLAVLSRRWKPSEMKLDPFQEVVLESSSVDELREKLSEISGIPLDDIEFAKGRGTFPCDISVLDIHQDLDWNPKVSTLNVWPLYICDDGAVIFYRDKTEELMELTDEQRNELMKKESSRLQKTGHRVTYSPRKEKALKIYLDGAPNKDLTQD

T1 sequence (Q93009 whole entry): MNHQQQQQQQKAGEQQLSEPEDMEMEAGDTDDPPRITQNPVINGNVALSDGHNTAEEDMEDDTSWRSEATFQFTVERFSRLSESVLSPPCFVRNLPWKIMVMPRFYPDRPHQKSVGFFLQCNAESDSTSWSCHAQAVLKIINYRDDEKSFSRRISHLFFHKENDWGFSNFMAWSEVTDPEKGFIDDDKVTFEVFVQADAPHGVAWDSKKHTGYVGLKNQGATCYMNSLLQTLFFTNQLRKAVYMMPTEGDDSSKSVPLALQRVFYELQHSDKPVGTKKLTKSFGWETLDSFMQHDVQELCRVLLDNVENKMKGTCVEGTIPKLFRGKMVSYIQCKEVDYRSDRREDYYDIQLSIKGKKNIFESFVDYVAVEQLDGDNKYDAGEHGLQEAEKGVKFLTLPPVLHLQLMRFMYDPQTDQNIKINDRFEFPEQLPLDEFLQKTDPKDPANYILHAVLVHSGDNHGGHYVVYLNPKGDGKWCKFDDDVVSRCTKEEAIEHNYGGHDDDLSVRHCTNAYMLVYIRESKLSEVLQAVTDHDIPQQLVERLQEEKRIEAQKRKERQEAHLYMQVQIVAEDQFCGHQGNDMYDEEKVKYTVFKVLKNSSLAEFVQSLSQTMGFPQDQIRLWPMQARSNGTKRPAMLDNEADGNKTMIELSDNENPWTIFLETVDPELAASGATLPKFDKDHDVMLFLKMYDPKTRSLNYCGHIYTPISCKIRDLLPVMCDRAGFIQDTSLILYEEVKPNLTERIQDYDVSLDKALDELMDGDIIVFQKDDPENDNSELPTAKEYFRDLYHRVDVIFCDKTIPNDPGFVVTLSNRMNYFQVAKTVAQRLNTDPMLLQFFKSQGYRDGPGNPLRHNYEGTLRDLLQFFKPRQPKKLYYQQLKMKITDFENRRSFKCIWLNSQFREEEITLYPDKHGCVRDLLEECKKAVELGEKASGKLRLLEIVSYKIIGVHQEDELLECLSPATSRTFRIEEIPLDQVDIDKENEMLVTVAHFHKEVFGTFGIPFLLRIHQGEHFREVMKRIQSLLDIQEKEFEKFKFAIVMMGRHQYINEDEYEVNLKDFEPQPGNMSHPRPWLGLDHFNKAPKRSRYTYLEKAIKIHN
Ubiquitin carboxyl-terminal hydrolase 7 (Homo sapiens, UniProt Q93009, C223A), sequence (Q93009 whole entry C223A): as the sequence (Q93009 whole entry) above, with C223A counted along it

SMILES: COC(=O)/C=C/CNC(=O)c1cc([N+](=O)[O-])c(Sc2cccc(Cl)c2Cl)s1
IC50 [1]: 580 nM

SMILES: COC(=O)[C@]12CCC(C)(C)C[C@H]1[C@H]1C(=O)C=C3[C@@]4(C)CC(C#N)C(=O)C(C)(C)[C@@H]4CC[C@@]3(C)[C@]1(C)CC2 (some centres undefined)
IC50 [4]: 25000 nM

SMILES: O=C(Nc1ccc2c(c1)S(=O)(=O)C=C2)c1cc([N+](=O)[O-])c(Sc2c(Cl)cncc2Cl)s1
IC50 [5]: 100 nM

SMILES: C[C@@]12CCCc3coc(c31)C(=O)c1cc3c(cc12)C(=O)C=CC3=O [XESTOQUINONE]
IC50 [6]: 130 nM

SMILES: C[C@@]12CCCc3coc(c31)C(=O)c1cc3c(=O)c4c(c(=O)c3cc12)c1c(=O)c2cc3c(cc2c(=O)c1c1c(=O)c2cc5c(cc2c(=O)c41)[C@]1(C)CCCc2coc(c21)C5=O)[C@]1(C)CCCc2coc(c21)C3=O
IC50 [6]: 750 nM

SMILES: C[C@@]12CCCc3coc(c31)C(=O)c1cc3c(cc12)C(=O)C=C(C1=CC(=O)c2cc4c(cc2C1=O)C(=O)c1occ2c1[C@@]4(C)CCC2)C3=O
IC50 [6]: 490 nM

SMILES: COC(=O)[C@]12CCC(C)(C)C[C@H]1[C@H]1C(=O)C=C3[C@@]4(C)C=C(C#N)C(=O)C(C)(C)[C@@H]4CC[C@@]3(C)[C@]1(C)CC2 [BARDOXOLONE METHYL]
IC50 [7]: 22000 nM

SMILES: CC1=CS(=O)(=O)c2cc(NC(=O)c3cc([N+](=O)[O-])c(Sc4c(Cl)cncc4Cl)s3)ccc21
IC50 [5]: 170 nM

SMILES: CN(CCCNC(=O)c1ccc2nc3c(c(Cl)c2c1)CCCC3)Cc1ccccc1
IC50 [9]: 28000 nM

SMILES: CC1CS(=O)(=O)c2cc(NC(=O)c3cc([N+](=O)[O-])c(Sc4c(Cl)cncc4Cl)s3)ccc21 (centres undefined)
IC50 [5]: 75 nM

SMILES: CC(=O)c1cnc(Sc2c(Cl)cncc2Cl)s1
IC50 [5]: 22600 nM

SMILES: C[C@H]1[C@H](C)CC[C@]2(C(=O)O)CC[C@]3(C)C(=CC[C@@H]4[C@@]5(C)CC[C@H](O)C(C)(C)[C@@H]5CC[C@]43C)[C@H]12 [URSOLIC ACID]
IC50 [11]: 7000 nM | IC50 [12]: 26000 nM

Results, then the compound that gave them:

IC50 [2]: > 63300 nM | IC50 [3]: 2000 nM
SMILES: CCc1c(-c2ccc3c(cnn3C)c2)cnc(N)c1-c1ccc(O)cc1

IC50 [8]: 200 to 1000 nM
SMILES: CC(CC(=O)N1CCC(O)(C(C)n2cnc3c(cnn3C)c2=O)CC1)c1ccccc1 (centres undefined)

IC50 [8]: < 200 nM
SMILES: CC(=O)Nc1ccc2c(=O)n(C(C)C3(O)CCN(C(=O)CC(C)c4ccccc4)CC3)cnc2c1 (centres undefined)

IC50 [5]: 8200 nM
SMILES: O=C(Nc1cccc(CN2CCCC2)c1)c1ccc2nc3c(c(Cl)c2c1)CCCC3

IC50 [10]: > 50000 nM
SMILES: CC(=O)c1cc([N+](=O)[O-])c(Sc2ccccc2)s1

IC50 [8]: 300 to 1000 nM
SMILES: CCCc1cc2c(=O)n(C(C)C3(O)CCN(C(=O)CC(C)c4ccccc4)CC3)cnc2s1 (centres undefined)

IC50 [5]: 200 nM
SMILES: CN(C)CCCNC1CS(=O)(=O)c2cc(NC(=O)c3cc([N+](=O)[O-])c(Sc4c(Cl)cncc4Cl)s3)ccc21 (centres undefined)

IC50 [8]: 200 to 1000 nM
SMILES: CC(CC(=O)N1CCC(O)(C(C)n2cnn3cccc3c2=O)CC1)c1ccccc1 (centres undefined)

IC50 [8]: < 500 nM
SMILES: CC(CC(=O)N1CCC(O)(C(C)n2cnc3cc[nH]c3c2=O)CC1)c1ccccc1 (centres undefined)

IC50 [5]: 130 nM
SMILES: O=C(Nc1ccc2c(c1)S(=O)(=O)CC2)c1cc([N+](=O)[O-])c(Sc2c(Cl)cncc2Cl)s1
